Data taken from ChEMBL document CHEMBL1154906, “Additional insights on the bastadins: isolation of analogues from the sponge Ianthella cf. reticulata and exploration of the oxime configurations” (J Nat Prod, 2010).
The source made the active and inactive calls. No cut-off for these calls is given here.

What was measured:
[1] = tested on: Trypanosoma brucei brucei; assay: Antitrypanosomal activity against Trypanosoma brucei brucei 221 after 48 hrs by ATP-bioluminescence assay; assay type: functional, organism-based; details: for IC50: Trypanosoma brucei, 221, 48 h
HCT-116 = assay: Cytotoxicity against human HCT116 cells after 7 days by methylene blue staining; assay type: functional, cell-based

Structure (SMILES) | Activity [1] | Activity (HCT-116) | further results
O=C1NCCc2cc(Br)c(O)c(c2)Oc2ccc(cc2Br)[C@H](O)CNC(=O)/C(=N/O)Cc2cc(Br)c(O)c(c2)Oc2c(Br)cc(cc2Br)C/C1=N\O | inactive | – | –
O=C1NCCc2ccc(c(Br)c2)Oc2cc(ccc2O)CCNC(=O)/C(=N/O)Cc2cc(Br)c(O)c(c2)Oc2c(Br)cc(cc2Br)C/C1=N\O [BASTADIN 13] | – | – | IC50 [1]: 1770 nM
O=C(NCCc1ccc(O)c(Br)c1)/C(Cc1cc(Br)c(O)c(Oc2c(Br)cc(C/C(=N\O)C(=O)NCCc3ccc(O)c(Br)c3)cc2Br)c1)=N\O | inactive | – | –
O=C1NCCc2ccc(c(Br)c2)Oc2cc(cc(Br)c2O)CCNC(=O)/C(=N/O)Cc2cc(Br)c(O)c(c2)Oc2c(Br)cc(cc2Br)C/C1=N/O | – | inactive | –
O=C1NCCc2cc(Br)c(O)c(c2)Oc2c(Br)cc(cc2Br)CCNC(=O)/C(=N/O)Cc2cc(Br)c(O)c(c2)Oc2c(Br)cc(cc2Br)C/C1=N\O | inactive | inactive | –
O=C1NCCc2cc(Br)c(O)c(c2)Oc2ccc(cc2)CCNC(=O)/C(=N/O)Cc2cc(Br)c(O)c(c2)Oc2c(Br)cc(cc2Br)C/C1=N\O | inactive | – | –
O=C(NCCc1ccc(O)c(Br)c1)/C(Cc1cc(Br)c2c(c1)-c1cc(C/C(=N\O)C(=O)NCCc3ccc(O)c(Br)c3)cc(Br)c1OCO2)=N\O | – | inactive | –
O=C1NCCc2cc(Br)c(O)c(c2)Oc2ccc(cc2Br)CCNC(=O)/C(=N\O)Cc2cc(Br)c(O)c(c2)Oc2c(Br)cc(cc2Br)C/C1=N/O | inactive | inactive | –
O=C(NCCc1ccc(O)c(Br)c1)/C(Cc1cc(Br)c(O)c(-c2cc(C/C(=N/O)C(=O)NCCc3ccc(O)c(Br)c3)cc(Br)c2O)c1)=N\O | – | inactive | –
O=C1N/C=C/c2ccc(c(Br)c2)Oc2cc(cc(Br)c2O)CCNC(=O)/C(=N/O)Cc2ccc(c(Br)c2)Oc2cc(cc(Br)c2O)C/C1=N\O | inactive | – | –
O=C1N/C=C/c2ccc(c(Br)c2)Oc2cc(cc(Br)c2O)CCNC(=O)/C(=N/O)Cc2cc(Br)c(c(Br)c2)Oc2cc(cc(Br)c2O)C/C1=N\O [BASTADIN 4] | inactive | – | IC50 (HCT-116; HCT-116, 168 h): 1280 nM
O=C1NCCc2ccc(c(Br)c2)Oc2cc(cc(Br)c2O)CCNC(=O)/C(=N/O)Cc2cc(Br)c(O)c(c2)Oc2c(Br)cc(cc2Br)C/C1=N\O [BASTADIN 19] | – | inactive | IC50 [1]: 1310 nM
